Data set [1] in a line: Stability of ISO in plasma samples under various storage conditions. The following applies: mouse plasma, read-out: Remaining (%, Mean ± SD). The format is in vitro ADME. From the text: In bioanalysis, analyte stability in biological matrices is crucial for ensuring accurate and reliable quantification. Instability can result in degradation or transformation during sample collection, storage, or processing, potentially compromising data integrity and study outcomes. Therefore, the stability of ISO in plasma was thoroughly evaluated under various storage conditions (Table 5). Assessing ISO stability in intact tissues is challenging, as replicating the native tissue environment is difficult. Accordingly, only short-term stability (6 h on ice) was assessed in tissue homogenates (Table 6). For post-preparative stability, hepatic homogenate—the most complex matrix—was selected as a representative.
For the cleanup of plasma samples, three volumes of acetonitrile (containing IS at 400 ng/mL) were added to one volume of murine plasma to precipitate proteins. After vortexing for 20 s, the samples were centrifuged at 1503× g for 10 min at 4 °C. The supernatant was carefully transferred to a glass insert preloaded in an autosampler vial. During each HPLC analysis, 10 μL of supernatant was injected into the HPLC system. The minimum plasma volume required per analysis was 25 μL.
The stability of ISO was evaluated under various storage conditions. Stock solution stability was assessed after storage at room temperature (25 °C) and –20 °C. The stability of ISO in plasma was examined under the following conditions: short-term storage (25 °C for 24 h), long-term storage (–80 °C for 52 days), three freeze–thaw cycles, and post-preparative stability (samples kept in an autosampler at 4 °C for more than 24 h). As it is difficult to evaluate ISO stability directly in tissues, only the short-term stability in tissue homogenates was assessed (6 h on ice). Similarly, post-preparative stability in processed tissue samples was assessed using liver homogenate as a representative, due to the complexity of the hepatic matrix. Stability was considered acceptable if 85–115% of the initial ISO concentration remained.

The conditions of data set [2]: mice, oral; cited from earlier work.

Molecules are shown by their SMILES. Like-named read-outs stand apart in the source and are kept apart here. A value given as a limit tells only on which side of the number the result lay.

For the compound `COc1cc(/C=C/c2cc(O)cc(O)c2)ccc1O` [ISO, trans-3,5,4′-trihydroxy-3′-methoxystilbene], the amount remaining at 45 ng/mL in data set [1] (45.0 ng/mL, after three freeze and thaw cycles) came out at 101 ± 4.4%. Besides, in data set [1] (45.0 ng/mL, long term-stability (−80 °C for 52 days)), the amount remaining at 1248 h, 45 ng/mL worked out at 102 ± 1.9%. The amount remaining at 24 h, 45 ng/mL is 102 ± 2.7% in data set [1] (45.0 ng/mL, post-preparative stability (autosampler at 4 °C for at least 24 h)) and 102 ± 3.7% in data set [1] (45.0 ng/mL, short-term stability (24 h at room temperature)). Further, the amount remaining at 1600 ng/mL in data set [1] (1600 ng/mL, after three freeze and thaw cycles) was found to be 105 ± 1.1%. Also, the share remaining at 1248 h, 1600 ng/mL in data set [1] (1600 ng/mL, long term-stability (−80 °C for 52 days)) is 106 ± 2.1%. Moreover, the fraction remaining at 24 h, 1600 ng/mL in data set [1] (1600 ng/mL, post-preparative stability (autosampler at 4 °C for at least 24 h)) was determined as 101.7 ± 1%; in data set [1] (1600 ng/mL, short-term stability (24 h at room temperature)), 101.7 ± 0.9%. Further, the “Time of peak plasma concentrations post-dosing” value in data set [2] is no more than 15 min.
